The text below walks through data of DBAASP.

The term MIC denotes the lowest concentration found to suppress growth. The low end stands for a more susceptible organism, the high end for a less susceptible organism.

Among the test systems are Bacillus subtilis; Candida albicans; Escherichia coli; Staphylococcus aureus; Bacillus cereus.
What all share (test): ≥ marks a high value that may be exact or a test limit, other limits are often not marked, values filed in µg/mL are converted to µM
The test system of assay [1] is Pseudomonas aeruginosa ATCC 9027.
The subject of assay [2] is Staphylococcus aureus ATCC 6538.
In assay [3] the test system is Acinetobacter baumannii ATCC 19606.
The test system of assay [4] is Escherichia coli ATCC 25922.
For assay [5], the system named is Pseudomonas aeruginosa ATCC 27853.
Assay [6] has as its system Staphylococcus aureus ATCC 25923.
The subject of assay [7] is Bacillus subtilis ATCC 6633.

SMILES strings stand for the structures. Values after ≈ are worked out from the molar mass of the structure shown. A value given as a limit tells only on which side of the number the result lay.

Take `CC[C@H](C)[C@H](NC(=O)[C@H](CCCN=C(N)N)NC(=O)[C@@H](NC(=O)[C@@H]1CCCN1C(=O)[C@H](CCCN=C(N)N)NC(=O)[C@@H](NC(=O)[C@@H]1CCCN1C(=O)[C@H](CC(C)C)NC(=O)[C@H](CC(C)C)NC(=O)CNC(=O)[C@H](Cc1cnc[nH]1)NC(=O)[C@@H]1CCCN1C(=O)CNC(=O)[C@H](Cc1ccccc1)NC(=O)[C@H](CC(=O)O)NC(=O)[C@H](Cc1c[nH]c2ccccc12)NC(=O)[C@H](C)NC(=O)[C@@H](NC(=O)[C@H](C)N)[C@@H](C)O)[C@@H](C)CC)[C@@H](C)CC)C(=O)N[C@@H](CCCN=C(N)N)C(=O)N1CCC[C@H]1C(=O)N[C@@H](CC(C)C)C(=O)N[C@@H](CS)C(=O)NCC(=O)N[C@@H](CCCCN)C(=O)N[C@@H](CC(=O)O)C(=O)N[C@@H](CCCCN)C(=O)N[C@@H](CO)C(=O)O` [ATAWDFGPHGLLPIRPIRIRPLCGKDKS]: the MIC in the assay with Bacillus subtilis worked out at 24.1 µM (≈ 75 µg/mL); against Candida albicans it was 6.02 µM (≈ 18.8 µg/mL); against Escherichia coli it was 3.01 µM (≈ 9.37 µg/mL); in the assay on Staphylococcus aureus it was 1.5 µM (≈ 4.68 µg/mL).

As to `CC(C)C[C@H](NC(=O)[C@H](CCCCN)NC(=O)[C@H](CCCCN)NC(=O)[C@H](C)NC(=O)[C@H](CC(C)C)NC(=O)[C@H](CCCCN)NC(=O)[C@H](C)NC(=O)[C@H](Cc1c[nH]c2ccccc12)NC(=O)[C@H](CC(C)C)NC(=O)[C@H](CCCCN)NC(=O)[C@H](C)NC(=O)[C@@H](N)Cc1ccccc1)C(N)=O` [FAKLWAKLAKKL], the MIC came out at 35.3 µM (≈ 50 µg/mL) in assay [1] and 70.6 µM (≈ 99.9 µg/mL) in assay [2].

For `CC(C)C[C@H](NC(=O)[C@H](CC(C)C)NC(=O)[C@H](CCCCN)NC(=O)[C@H](CCCCN)NC(=O)[C@H](CC(C)C)NC(=O)[C@H](CC(=O)O)NC(=O)[C@H](CCCCN)NC(=O)[C@H](CC(C)C)NC(=O)[C@@H](N)Cc1ccccc1)C(N)=O` [FLKDLKKLL], the MIC was greater than 115 µM in assay [3], greater than 115 µM in [4], 14.3 µM (≈ 16 µg/mL) in assay [5] and greater than 115 µM in [6].

With `CC(C)C[C@H](NC(=O)CN)C(=O)N[C@@H](Cc1ccccc1)C(=O)NCC(=O)N[C@@H](CCCCN)C(=O)N[C@@H](CO)C(=O)N[C@@H](CO)C(=O)N[C@H](C(=O)N[C@@H](Cc1c[nH]c2ccccc12)C(=O)NCC(=O)N[C@@H](CCCN=C(N)N)C(=O)N[C@@H](CCCCN)C(=O)N[C@@H](Cc1ccc(O)cc1)C(=O)N[C@@H](Cc1ccc(O)cc1)C(=O)N[C@H](C(=O)N[C@@H](CC(=O)O)C(=O)N[C@@H](CC(C)C)C(=O)N[C@@H](C)C(=O)NCC(=O)N[C@@H](CS)C(=O)N[C@@H](C)C(=O)N[C@@H](CCCCN)C(=O)N[C@@H](C)C(=O)O)C(C)C)C(C)C` [GLFGKSSVWGRKYYVDLAGCAKA], the MIC with Bacillus subtilis is 2.54 µM (≈ 6.3 µg/mL); against Candida albicans, 1.27 µM (≈ 3.15 µg/mL); with Escherichia coli it was 5.09 µM (≈ 12.6 µg/mL); with Staphylococcus aureus, 2.54 µM (≈ 6.3 µg/mL).

With `CC[C@H](C)[C@H](N)C(=O)N[C@@H](C)C(=O)N[C@@H](CO)C(=O)N[C@@H](C)C(=O)N[C@H](C(=O)N1CCC[C@H]1C(=O)N[C@H](C(=O)N[C@@H](CS)C(=O)N[C@H](C(=O)N[C@@H](CCCCN)C(=O)NCC(=O)N[C@@H](CCCCN)C(=O)N[C@H](C(=O)N[C@@H](CO)C(=O)N[C@@H](CCCCN)C(=O)N[C@@H](CO)C(=O)N[C@@H](Cc1ccc(O)cc1)C(=O)N[C@H](C(=O)N[C@@H](CO)C(=O)N[C@H](C(=O)O)C(C)C)[C@@H](C)CC)[C@@H](C)CC)C(C)C)C(C)C)C(C)C` [IASAVPVCVKGKISKSYISV], the figures for the MIC with Bacillus cereus and in the assay on Escherichia coli were no less than 125 µM and greater than 125 µM, respectively.

With `CC(C)C[C@H](NC(=O)CNC(=O)[C@H](C)NC(=O)[C@@H](NC(=O)[C@H](CC(N)=O)NC(=O)[C@H](CO)NC(=O)[C@H](CC(C)C)NC(=O)[C@@H](N)CC(C)C)C(C)C)C(=O)N[C@@H](CC(C)C)C(=O)N[C@@H](CCCCN)C(=O)N[C@@H](CCC(N)=O)C(=O)N[C@@H](Cc1ccccc1)C(=O)N[C@@H](C)C(=O)N[C@@H](CCCCN)C(=O)O` [LLSNVAGLLKQFAK], the minimum inhibitory concentration (MIC) in assay [7] is no less than 85.2 µM; in [4] it was 5.33 µM (≈ 8 µg/mL); in assay [5] it was 42.6 µM (≈ 64 µg/mL); in [6], 85.2 µM (≈ 128 µg/mL).

Regarding `CC(C)C[C@H](NC(=O)[C@H](CO)NC(=O)[C@@H]1CCCN1)C(=O)N[C@@H](CC(C)C)C(=O)N[C@@H](Cc1ccc(O)cc1)C(=O)N[C@@H](CCCCN)C(=O)N[C@@H](C)C(=O)N[C@@H](CCCCN)C(=O)N[C@@H](C)C(=O)N[C@H](C(=O)N[C@@H](Cc1ccccc1)C(=O)N[C@@H](CS)C(=O)N[C@@H](CCCCN)C(=O)N1CCC[C@H]1C(=O)N[C@@H](CO)C(=O)N[C@@H](C)C(=O)N[C@H](C(=O)N[C@@H](C)C(=O)N[C@H](C(=O)N[C@@H](Cc1ccccc1)C(=O)O)C(C)C)C(C)C)C(C)C` [PSLLYKAKAVFCKPSAVAVF], the MIC in the assay with Bacillus cereus is no less than 59.8 µM; in the assay with Escherichia coli, greater than 59.8 µM.

For `CC(C)C[C@H](NC(=O)[C@H](CCC(=O)O)NC(=O)[C@H](Cc1ccccc1)NC(=O)[C@H](CCC(=O)O)NC(=O)[C@H](C)NC(=O)[C@H](CCC(=O)O)NC(=O)[C@H](Cc1ccccc1)NC(=O)[C@H](CC(=O)O)NC(=O)[C@@H](NC(=O)[C@H](CC(=O)O)NC(=O)[C@H](CO)NC(=O)[C@H](CCCCN)NC(=O)[C@H](CCCN=C(N)N)NC(=O)[C@H](CCCCN)NC(=O)[C@@H](N)CCCN=C(N)N)C(C)C)C(=O)N[C@@H](Cc1ccccc1)C(=O)N[C@@H](CCC(=O)O)C(=O)N[C@@H](CC(=O)O)C(=O)N[C@@H](CC(=O)O)C(=O)N[C@@H](CC(=O)O)C(=O)O` [RKRKSDVDFEAEFELFEDDD], the MIC was no less than 103 µM in the assay on Bacillus cereus and greater than 103 µM against Escherichia coli.

Turning to `CC[C@H](C)[C@H](NC(=O)[C@H](CCCCN)NC(=O)[C@H](CS)NC(=O)[C@H](C)NC(=O)[C@@H](NC(=O)[C@H](Cc1ccccc1)NC(=O)CNC(=O)[C@H](CC(C)C)NC(=O)CNC(=O)[C@@H](NC(=O)[C@H](CCCCN)NC(=O)CNC(=O)[C@H](CC(C)C)NC(=O)[C@H](CC(N)=O)NC(=O)[C@H](CCCCN)NC(=O)[C@H](CC(C)C)NC(=O)[C@@H](NC(=O)[C@H](CO)NC(=O)[C@H](CC(C)C)NC(=O)[C@H](CCSC)NC(=O)[C@@H](N)CO)C(C)C)C(C)C)C(C)C)C(=O)N[C@@H](CC(N)=O)C(=O)N[C@@H](CCCCN)C(=O)N[C@@H](CCCCN)C(=O)N[C@@H](CS)C(=O)O` [SMLSVLKNLGKVGLGFVACKINKKC], the MIC was found to be 40 µM (≈ 106 µg/mL) in the assay on Candida albicans, 10 µM (≈ 26.5 µg/mL) in the assay with Escherichia coli and 40 µM (≈ 106 µg/mL) against Staphylococcus aureus.

Regarding `CC[C@H](C)[C@H](NC(=O)[C@H](CCCCN)NC(=O)[C@H](CS)NC(=O)[C@H](CCCCN)NC(=O)[C@@H](NC(=O)[C@H](Cc1ccccc1)NC(=O)CNC(=O)[C@H](CC(C)C)NC(=O)CNC(=O)[C@@H](NC(=O)[C@H](CCCCN)NC(=O)CNC(=O)[C@H](CC(C)C)NC(=O)[C@H](CC(N)=O)NC(=O)[C@H](CCCCN)NC(=O)[C@H](CC(C)C)NC(=O)[C@@H](NC(=O)[C@H](CO)NC(=O)[C@H](CC(C)C)NC(=O)[C@H](CCSC)NC(=O)[C@@H](N)CO)C(C)C)C(C)C)C(C)C)C(=O)N[C@@H](CC(N)=O)C(=O)N[C@@H](CCCCN)C(=O)N[C@@H](CCC(N)=O)C(=O)N[C@@H](CS)C(=O)O` [SMLSVLKNLGKVGLGFVKCKINKQC], the MIC worked out at 20 µM (≈ 54.2 µg/mL) against Candida albicans, 10 µM (≈ 27.1 µg/mL) with Escherichia coli and 20 µM (≈ 54.2 µg/mL) in the assay on Staphylococcus aureus.
